Laboratory results as given in patent publication US7932262B2 (Novartis AG, priority 2006, dated 2011).
Read-outs that look alike come from different tables or passages of the source.

Assays:
PC-3 cells = test: Cell Proliferation Assay (Cell Titer Glo), PC-3 cell line; assay type: cell-based; settings: PC3, read-out: CPEC50 PC3
Outline: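 PC-3 cells, 1000 cells/well, left to adhere 3-5 h, then exposed for 3 days at 37° C to compounds as 1:3 serial dilutions from 500× DMSO stocks diluted in growth medium. Medium then replaced with fresh medium and viability read by Cell Titer Glo luminescence.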

PDK1 kinase = target: T1, PDK1 kinase (Homo sapiens, UniProt O15530); test: PDK1 Kinase Alpha Screen Assay; assay type: biochemical; settings: PDK1 Kinase Alpha Screen Assay; read-out: PDK1 IC50
T1 sequence (O15530 1-556): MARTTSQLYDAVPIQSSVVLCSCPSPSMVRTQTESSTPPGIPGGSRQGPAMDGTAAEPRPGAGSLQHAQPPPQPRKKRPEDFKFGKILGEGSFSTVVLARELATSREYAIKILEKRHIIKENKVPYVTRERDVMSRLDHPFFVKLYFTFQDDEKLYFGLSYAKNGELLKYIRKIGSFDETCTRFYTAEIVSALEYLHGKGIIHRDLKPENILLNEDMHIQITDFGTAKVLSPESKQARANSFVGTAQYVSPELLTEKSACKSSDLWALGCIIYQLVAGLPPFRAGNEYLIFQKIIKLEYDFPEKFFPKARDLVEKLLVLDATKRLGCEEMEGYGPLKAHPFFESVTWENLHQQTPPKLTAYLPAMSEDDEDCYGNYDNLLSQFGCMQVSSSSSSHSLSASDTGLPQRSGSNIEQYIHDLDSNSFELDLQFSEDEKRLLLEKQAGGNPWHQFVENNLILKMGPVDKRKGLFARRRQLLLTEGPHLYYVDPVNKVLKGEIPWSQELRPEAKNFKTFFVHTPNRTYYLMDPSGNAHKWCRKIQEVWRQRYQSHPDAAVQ
Outline: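 Biotinylated PDK1-4 peptide (50 nM) phosphorylated by PDK1 with 10 uM ATP in pH 7.5 Tris/MgCl2/DTT buffer, 2.5% DMSO, for 3-18 hours. EDTA stop, then AlphaScreen detection with phospho-(Ser/Thr) PKA substrate antibody and protein A/streptavidin beads after overnight room-temperature development.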

[1] = Homo sapiens, PC-3, Cell Proliferation Assay

Compound: CN1CCC(Nc2ccc3cnc(Nc4ccc(N5CCOCC5)c(Cl)c4)nc3c2)CC1 [Compound 355, N2-(3-chloro-4-morpholinophenyl)-N7-(1-methylpiperidin-4-yl)quinazoline-2,7-dimaine]
- EC50 (PC-3 cells; [1]): < 5 µM
- IC50 (PDK1 kinase): < 5 µM

Compound: Cc1ccc(OC2CCNCC2)c2nc(Nc3ccc(C(=O)N4CCOCC4)cc3)ncc12 [Compound 356, (4-(5-methyl-8-(piperidin-4-yloxy)quinazolin-2-ylamino)phenyl)(morpholino)methanone]
- EC50 (PC-3 cells; [1]): 5 to 10 µM
- IC50 (PDK1 kinase): < 5 µM

Compound: CC(C)NS(=O)(=O)c1ccc(Nc2ncc3c(Br)ccc(OC4CCN(C(C)C)CC4)c3n2)cc1 [Compound 357, 4-(5-bromo-8-(1-isopropylpiperidin-4-yloxy)quinazolin-2-ylamino)-N-isopropylbenzenesulfonamide]
- EC50 (PC-3 cells; [1]): < 5 µM
- IC50 (PDK1 kinase): < 5 µM

Compound: CC(C)N1CCC(Oc2ccc(Br)c3cnc(Nc4ccc(C(=O)N5CCOCC5)cc4)nc23)CC1 [Compound 358, (4-(5-bromo-8-(1-isopropylpiperidin-4-yloxy)quinazolin-2-ylamino)phenyl)(morpholino)methanone]
- EC50 (PC-3 cells; [1]): 5 to 10 µM
- IC50 (PDK1 kinase): < 5 µM

Compound: Cc1ccc(OC2CCN(C(C)C)CC2)c2nc(Nc3ccc(C(=O)N4CCOCC4)cc3)ncc12 [Compound 359, (4-(8-(1-isopropylpiperidin-4-yloxy)-5-methylquinazolin-2-ylamino)phenyl)(morpholino)methanone]
- EC50 (PC-3 cells; [1]): 5 to 10 µM
- IC50 (PDK1 kinase): < 5 µM

Compound: Cc1ccc(OC2CCN(C(C)C)CC2)c2nc(Nc3ccc(S(=O)(=O)NC(C)C)cc3)ncc12 [Compound 360, N-isopropyl-4-(8-(1-isopropylpiperidin-4-yloxy)-5-methylquinazolin-2-ylamino)benzenesulfonamide]
- EC50 (PC-3 cells; [1]): < 5 µM
- IC50 (PDK1 kinase): < 5 µM

Compound: NS(=O)(=O)c1ccc(Nc2ncc3ccc(NC4CCNCC4)cc3n2)cc1 [Compound 361, 4-(7-(piperidin-4-ylamino)quinazolin-2-ylamino)benzenesulfonamide]
- EC50 (PC-3 cells; [1]): 5 to 10 µM
- IC50 (PDK1 kinase): < 5 µM

Compound: Cc1ccc(OC2CCNCC2)c2nc(Nc3ccc(N4CCOCC4)c(Cl)c3)ncc12 [Compound 362, N-(3-chloro-4-morpholinophenyl)-5-methyl-8-(piperidin-4-yloxy)quinazolin-2-amine]
- EC50 (PC-3 cells; [1]): < 5 µM
- IC50 (PDK1 kinase): < 5 µM

Compound: Clc1cc(Nc2ncc3ccc(NC4CCNCC4)cc3n2)ccc1N1CCOCC1 [Compound 363, N2-(3-chloro-4-morpholinophenyl)-N7-(piperidin-4-yl)quinazoline-2,7-diamine]
- EC50 (PC-3 cells; [1]): < 5 µM
- IC50 (PDK1 kinase): < 5 µM

Compound: Cc1ccc(OC2CCNCC2)c2nc(Nc3cccc(F)c3)ncc12 [Compound 365, N-(3-fluorophenyl)-5-methyl-8-(piperidin-4-yloxy)quinazolin-2-amine]
- EC50 (PC-3 cells; [1]): 5 to 10 µM
- IC50 (PDK1 kinase): < 5 µM

Compound: Cc1ccc(OC2CCNCC2)c2nc(Nc3ccc(N4CCOCC4)c(F)c3)ncc12 [Compound 366, N-(3-fluoro-4-morpholinophenyl)-5-methyl-8-(piperidin-4-yloxy)quinazolin-2-amine]
- EC50 (PC-3 cells; [1]): 5 to 10 µM
- IC50 (PDK1 kinase): < 5 µM

Compound: Cc1ccc(OC2CCNCC2)c2nc(Nc3ccc(S(=O)(=O)N4CCOCC4)cc3)ncc12 [Compound 367, 5-methyl-N-(4-(morpholinosulfonyl)phenyl)-8-(piperidin-4-yloxy)quinazolin-2-amine]
- EC50 (PC-3 cells; [1]): 5 to 10 µM
- IC50 (PDK1 kinase): < 5 µM

Compound: CN1CCC(Nc2ccc3cnc(Nc4ccc(N5CCOCC5)c(F)c4)nc3c2)CC1 [Compound 368, N2-(3-fluoro-4-morpholinophenyl)-N7-(1-methylpiperidin-4-yl)quinazoline-2,7-diamine]
- EC50 (PC-3 cells; [1]): < 5 µM
- IC50 (PDK1 kinase): < 5 µM

Compound: CN1CCC(Nc2ccc3cnc(Nc4ccc(N5CCOCC5)cc4)nc3c2)CC1 [Compound 369, N7-(1-methylpiperidin-4-yl)-N2-(4-morpholinophenyl)quinazoline-2,7-diamine]
- EC50 (PC-3 cells; [1]): 5 to 10 µM
- IC50 (PDK1 kinase): < 5 µM

Compound: CN1CCN(c2ccc(Nc3ncc4c(Br)ccc(OC5CCNCC5)c4n3)cc2)CC1 [Compound 373, 5-bromo-N-(4-(4-methylpiperazin-1-yl)phenyl)-8-(piperidin-4-yloxy)quinazolin-2-amine]
- EC50 (PC-3 cells; [1]): < 5 µM
- IC50 (PDK1 kinase): 10 to 25 µM

Compound: COc1cc(C(=O)NC2CCN(C)CC2)ccc1Nc1ncc2c(C)ccc(OC3CCNCC3)c2n1 [Compound 375, 3-methoxy-4-(5-methyl-8-(piperidin-4-yloxy)quinazolin-2-ylamino)-N-(1-methylpiperidin-4-yl)benzamide]
- EC50 (PC-3 cells; [1]): 5 to 10 µM
- IC50 (PDK1 kinase): 5 to 10 µM

Compound: CN1CCC(Nc2ccc(Cl)c3cnc(Nc4ccc(C(=O)N5CCOCC5)cc4)nc23)CC1 [Compound 377, (4-(5-chloro-8-(1-methylpiperidin-4-ylamino)quinazolin-2-ylamino)phenyl) (morpholino)methanone]
- EC50 (PC-3 cells; [1]): < 5 µM
- IC50 (PDK1 kinase): < 5 µM

Compound: O=C(c1ccc(Nc2ncc3c(Cl)ccc(OC4CCNCC4)c3n2)cc1F)N1CCOCC1 [Compound 378, (4-(5-chloro-8-(piperidin-4-yloxy)quinazolin-2-ylamino)-2-fluorophenyl)(morpholino)methanone]
- EC50 (PC-3 cells; [1]): < 5 µM
- IC50 (PDK1 kinase): < 5 µM

Compound: CC(C)NC(=O)c1ccc(Nc2ncc3c(Cl)ccc(OC4CCNCC4)c3n2)cc1F [Compound 379, 4-(5-chloro-8-(piperidin-4-yloxy)quinazolin-2-ylamino)-2-fluoro-N-isopropylbenzamide]
- EC50 (PC-3 cells; [1]): < 5 µM
- IC50 (PDK1 kinase): < 5 µM

Compound: COc1cccc(Nc2ncc3c(Cl)ccc(OC4CCNCC4)c3n2)c1 [Compound 380, 5-chloro-N-(3-methoxyphenyl)-8-(piperidin-4-yloxy)quinazolin-2-amine]
- EC50 (PC-3 cells; [1]): < 5 µM
- IC50 (PDK1 kinase): < 5 µM

Compound: NC(=O)c1cc(Nc2ncc3c(Cl)ccc(OC4CCNCC4)c3n2)cc(C(F)(F)F)c1 [Compound 381, 3-(5-chloro-8-(piperidin-4-yloxy)quinazolin-2-ylamino)-5-(trifluoromethyl)benzamide]
- EC50 (PC-3 cells; [1]): < 5 µM
- IC50 (PDK1 kinase): < 5 µM

Compound: CC(=O)Nc1cc(NC(C)=O)cc(Nc2ncc3c(Cl)ccc(OC4CCNCC4)c3n2)c1 [Compound 382, N,N′-(5-(5-chloro-8-(piperidin-4-yloxy)quinazolin-2-ylamino)-1,3-phenylene)diacetamide]
- EC50 (PC-3 cells; [1]): 5 to 10 µM
- IC50 (PDK1 kinase): < 5 µM

Compound: COc1ccc(C(F)(F)F)c2cnc(Nc3ccc(C(=O)N4CCOCC4)cc3)nc12 [Compound 383]
- EC50 (PC-3 cells; [1]): 5 to 10 µM
- IC50 (PDK1 kinase): < 5 µM

Compound: FC(F)(F)c1ccc(OC2CCNCC2)c2nc(Nc3ccc(N4CCOCC4)cc3)ncc12 [Compound 384, N-(4-morpholinophenyl)-8-(piperidin-4-yloxy)-5-(trifluoromethyl)quinazolin-2-amine]
- EC50 (PC-3 cells; [1]): 5 to 10 µM
- IC50 (PDK1 kinase): < 5 µM

Compound: FC(F)(F)c1ccc(OC2CCNCC2)c2nc(Nc3ccc(N4CCOCC4)cc3)ncc12 [Compound 385, N-(4-morpholinophenyl)-8-(piperidin-4-yloxy)-5-(trifluoromethyl)quinazolin-2-amine]
- EC50 (PC-3 cells; Cell Proliferation Assay): < 5 µM
- IC50 (PDK1 kinase): < 5 µM

Compound: CC(C)N1CCC(Oc2cc(Br)cc3cnc(Nc4ccc(F)cc4)nc23)CC1 [Compound 389, 6-bromo-N-(4-fluorophenyl)-8-(1-isopropylpiperidin-4-yloxy)quinazolin-2-amine]
- EC50 (PC-3 cells; [1]): < 5 µM
- IC50 (PDK1 kinase): < 5 µM

Compound: Cc1ccc(C(=O)O)cc1-c1ccc2cnc(Nc3ccc(S(N)(=O)=O)cc3)nc2c1 [Compound 390, 4-methyl-3-(2-(4-sulfamoylphenylamino)quinazolin-7-yl)benzoic acid]
- EC50 (PC-3 cells; [1]): 5 to 10 µM
- IC50 (PDK1 kinase): < 5 µM
